In PMC10891143, “Quantitative live cell imaging of a tauopathy model enables the identification of a polypharmacological drug candidate that restores physiological microtubule interaction” (Nature Communications, 2024):

How the values were obtained:
[1] = molecular target: T1, Tau (recombinant human tau, Tau441wt) (Homo sapiens, UniProt P10636, DEL125-375/DEL395-460/DEL597-597); assay: heparin-induced aggregation, ultracentrifugation sedimentation assay; assay type: biochemical; settings: 2-20 µM PHOX15, 24 h, 37 °C, pH 7.4, 200 µg/ml heparin, 1% DMSO
T1 construct: gene MAPT; full-length Tau441, pET-3d, E. coli BL21(DE3)pLysS; anion exchange and phosphocellulose chromatography

[2] = molecular target: T2, PAGFP-Tau / PAGFP-TauΔK280 (Homo sapiens, UniProt P10636, DEL125-375/DEL395-460/DEL597-597); assay: FDAP live-cell imaging, effective diffusion constant of tau (restored microtubule binding); assay type: cell-based
T2 construct: gene MAPT
From the text: FDAP live-cell imaging, effective diffusion constant of tau (restored microtubule binding) on PAGFP-Tau / PAGFP-TauΔK280 | IC50 value of the activity of PHOX15 to restore microtubule binding of TauΔK280, obtaining

[3] = molecular target: T3, Tau (recombinant human tau, Tau441wt) (Homo sapiens, UniProt P10636); assay: heparin-induced aggregation, ultracentrifugation sedimentation assay; assay type: biochemical; settings: 20 µM PHOX15 (significant, p = 0.0494), 24 h, 37 °C, pH 7.4, 200 µg/ml heparin, 1% DMSO
T3 construct: gene MAPT; full-length Tau441, pET-3d, E. coli BL21(DE3)pLysS; anion exchange and phosphocellulose chromatography
T3 sequence (P10636 1-441 isoform P10636-8): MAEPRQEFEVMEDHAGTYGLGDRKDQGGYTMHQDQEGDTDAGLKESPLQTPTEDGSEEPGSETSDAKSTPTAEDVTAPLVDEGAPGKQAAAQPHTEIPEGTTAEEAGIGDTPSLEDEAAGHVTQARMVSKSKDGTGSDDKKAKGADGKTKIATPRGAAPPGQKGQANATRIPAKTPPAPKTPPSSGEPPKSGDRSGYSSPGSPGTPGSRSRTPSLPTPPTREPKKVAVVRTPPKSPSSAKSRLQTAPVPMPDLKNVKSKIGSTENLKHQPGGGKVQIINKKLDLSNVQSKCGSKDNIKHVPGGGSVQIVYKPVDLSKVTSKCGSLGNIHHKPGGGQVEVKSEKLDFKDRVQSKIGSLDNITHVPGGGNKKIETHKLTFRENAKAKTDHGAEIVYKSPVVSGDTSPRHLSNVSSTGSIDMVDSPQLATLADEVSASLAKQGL

T2 sequence (P10636 with tags, fused parts or gaps DEL125-375/DEL395-460/DEL597-597): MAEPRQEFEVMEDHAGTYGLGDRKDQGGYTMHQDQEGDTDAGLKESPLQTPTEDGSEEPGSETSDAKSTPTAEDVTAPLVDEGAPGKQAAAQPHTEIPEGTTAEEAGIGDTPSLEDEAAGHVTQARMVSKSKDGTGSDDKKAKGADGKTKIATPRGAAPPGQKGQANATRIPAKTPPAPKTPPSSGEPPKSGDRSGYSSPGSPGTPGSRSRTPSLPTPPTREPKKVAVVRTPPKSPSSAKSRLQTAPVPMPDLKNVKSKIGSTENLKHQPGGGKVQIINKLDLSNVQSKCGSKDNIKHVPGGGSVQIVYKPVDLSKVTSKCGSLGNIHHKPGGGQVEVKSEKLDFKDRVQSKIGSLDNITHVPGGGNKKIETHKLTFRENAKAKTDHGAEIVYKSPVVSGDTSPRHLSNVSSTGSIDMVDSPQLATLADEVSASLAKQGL
T1 sequence (P10636 with tags, fused parts or gaps DEL125-375/DEL395-460/DEL597-597): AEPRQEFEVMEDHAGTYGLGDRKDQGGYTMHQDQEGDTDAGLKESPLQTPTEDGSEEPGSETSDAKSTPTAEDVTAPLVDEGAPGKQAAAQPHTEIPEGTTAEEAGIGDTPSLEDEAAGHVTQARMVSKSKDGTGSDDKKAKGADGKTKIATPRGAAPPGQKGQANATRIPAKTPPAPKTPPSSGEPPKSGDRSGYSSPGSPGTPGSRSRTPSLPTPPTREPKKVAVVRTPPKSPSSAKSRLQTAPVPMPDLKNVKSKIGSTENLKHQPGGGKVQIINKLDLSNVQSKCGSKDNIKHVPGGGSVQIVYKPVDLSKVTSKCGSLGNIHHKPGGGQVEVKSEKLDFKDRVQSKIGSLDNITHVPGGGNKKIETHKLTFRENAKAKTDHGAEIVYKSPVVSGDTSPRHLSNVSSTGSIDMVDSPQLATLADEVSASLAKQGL

% reduction of filament formation [1]: ~ 20% | IC50 [2]: 14 µM
Compound: O=C(Nc1ccccc1)c1coc(-c2ccc(O)cc2O)n1 [PHOX15, 2-(2,4-dihydroxyphenyl)-N-phenyloxazole-4-carboxamide]
fraction of aggregated tau [3]: PHOX15 decreases aggregation of recombinant TauΔK280 and human wild-type tau (Tau) in vitro
